Measurements as given in patent US20260297571A1, “METHODS FOR DECREASING NEURONAL DEATH, INFLAMMATION, AND DEGENERATION” (The Johns Hopkins University, priority 2023, published 2026).

Tests used:
[1] = tested on: poly-GR expressing neurons (EEA1^+ early endosome); experiment: EEA1 immunofluorescence staining in i^3Neurons; format: cell-based, human; conditions: DJ001 3.7 μM; 3-days GR50 i^3Neurons
Description: During early endosome formation, Rab5 recruits EEA1 to the early endosomal membrane via local PI3P, thus EEA1 expression is considered a secondary indicator of PI3P level. […] EEA1^+ endosome formation was increased upon knocking down PTPσ in poly-GR expressing neurons (FIGS. 2C-2D).
Cell survival assay. I'Neurons were infected with lentivirus to transduce GR50, PR50, BFP or GFP expression in the cells on day 5, day 7, day 9 or day 11 depending on the experimental timeline. For inducible DPRs, the virus was added to neurons on differentiation day 6. The expression was initiated by adding Dox to the differentiation medium (induction day 1). […]
Confocal microscopy and image quantification. […] For GFP-2×FYVE florescence intensity quantification, at least 6 images were taken for each replica with more than 30 neurons. […] The fluorescence intensity of the region of interest was measured and then minus the background intensity. For the quantification of EEA1^+ and LAMP1^+ puncta, EEA1 or LAMP1 channel was merged with MAP2. The puncta within MAP2 region were counted and compared among groups. For the quantification in mouse brains, at least 6 serial sections were imaged to quantify the number of neurons, astrocyte, and microglia in mouse brains. For glutamate-induced neurotoxicity assays, 5 images of PI staining will be taken at 20× for each well to quantify dead neurons. […]

[2] = tested on: poly-GR expressing neurons; experiment: Cell survival assay, GR50 expressing i^3Neurons; format: cell-based, human
Protocol: (§1) Cell survival assay. I'Neurons were infected with lentivirus to transduce GR50, PR50, BFP or GFP expression in the cells on day 5, day 7, day 9 or day 11 depending on the experimental timeline. For inducible DPRs, the virus was added to neurons on differentiation day 6. The expression was initiated by adding Dox to the differentiation medium (induction day 1). To validate the effect of the drugs on neuron survival, DPR was transduced for 7 days. i^3Neurons were treated with 5 μM ASOs for 7 days or 2.5 μM ISP (Sigma, Cat. No. 5343390001) or 3.7 μM DJ001 (Sigma, Cat. No. SML2787) for 3 days before harvesting. To examine the effect of the drugs on other cellular phenotypes, DPR was transduced for 3 days. 2.5 μM ISP or 3.7 μM DJ001 was added to the culture medium on the same day, followed by FYVE reporter transduction 1 day later.
(§2) To measure cell survival, bright-field images were captured on day 14 using a Nikon TS-2 microscope. At least 4 images were taken at 10× object for each replica. At least 2 replicas were included for each batch. All experiments were performed at least twice. To examine dead neurons, PI (Thermo Fisher, Cat. No. P1304MP) dye was added to the culture medium 30 min before harvesting. Images of bright field and Cy3 channel were acquired, followed by quantifying the surviving neurons and PI^+ signals blindly.

[3] = tested on: poly-PR expressing neurons; experiment: Cell survival assay, PR50 expressing i^3Neurons; format: cell-based, human
Protocol: as §1, §2

[4] = tested on: PTPσ; conditions: DJ001; cited from earlier work
[5] = tested on: hematopoietic stem cell; conditions: in vitro and in the mouse model; cited from earlier work
[6] = tested on: PIKFYVE; conditions: YM-201636; cited from earlier work
[7] = tested on: C9-iPSNs; experiment: Glutamate-induced excitotoxicity assay in C9 iPSNs/iMNs; format: cell-based, human; conditions: 10 μM glutamate
Protocol: Glutamate toxicity contributes to the disease onset/progression in ALS due to the loss of glutamate transporter 1 (EAAT2). […] To evaluate the effect of PTPσ knockdown to the physiology of C9-iPSNs, glutamate-induced excitotoxicity assays were performed and the percentage of cell death (PI^+) was quantified after the treatment with or without PTPσ knockdown. […] Taken together, the evidence supports PTPσ knockdown as beneficial for homeostasis of endo-lysosomal system, neuronal function, and survival in the C9-iPSNs.
C9 patient iPSNs differentiation (iMNs differentiation). […]
Glutamate-induced excitotoxicity assay. […] Five pairs of age and gender-matched control and C9ORF72-ALS iPSNs were analyzed.
Confocal microscopy and image quantification. […] For GFP-2×FYVE florescence intensity quantification, at least 6 images were taken for each replica with more than 30 neurons. […] The fluorescence intensity of the region of interest was measured and then minus the background intensity. For the quantification of EEA1^+ and LAMP1^+ puncta, EEA1 or LAMP1 channel was merged with MAP2. The puncta within MAP2 region were counted and compared among groups. For the quantification in mouse brains, at least 6 serial sections were imaged to quantify the number of neurons, astrocyte, and microglia in mouse brains. […] At least 500 cells from each biological replicate will be counted for statistical comparison.

## O=C(/C=C\Nc1cccc([N+](=O)[O-])c1)c1ccccc1 [DJ001, (Z)-3-((3-nitrophenyl)amino)-1-phenylprop-2-en-1-one]
[1]
  formation of EEA1^+ early endosome: significantly increased
[2]; DJ001 3.7 μM, GR50 i^3Neurons
  poly-GR expressing neuron survival: improves
[3]; DJ001, PR50 i^3Neurons
  poly-PR expressing neuron survival: improves
[4]
  specificity of PTPσ inhibition: highly specific inhibitor
[5]
  hematopoietic stem cell regeneration: can promote hematopoietic stem cell regeneration

## CC(C)(O)CNc1ncc(-c2ccnc(Nc3ccnc(Cl)c3)n2)c(CC2CC2)n1 [VPS34-IN1]
[2]; VPS34-IN1 0.5 μM, 2 days, PTPσ knockdown GR50 i^3Neurons
  rescue effect of PTPσ knockdown on GR50 neuron survival: completely diminished
[3]; VPS34 inhibitor, PTPσ knockdown PR50 neurons
  rescue by PTPσ knockdown, PR50 neurons: abolished

## Nc1ccc(C(=O)Nc2cccc(-c3nc(N4CCOCC4)c4oc5ncccc5c4n3)c2)cn1 [YM-201636]
[2]; YM-201636 0.5 μM, GR50 i^3Neurons
  rescue effect in poly-GR expressing neurons (survival): robust rescue effect
[6]
  PI3P levels via inhibition of PI3P to PI(3,5)P2 conversion: can boost PI3P levels

## N[C@@H](CCC(=O)O)C(=O)O [glutamate]
[7]
  PI^+ dead cells in control shRNA C9-iPSNs: increased
